Results published in patent US9737517B2, “Pharmaceutical use of hexahydro-dibenzo[a,g]quinolizine compounds” (SHANGHAI INSTITUTE OF MATERIA MEDICA, CHINESE ACADEMY OF …, priority 2013, dated 2017).

What was measured:
[1] = system: vascular smooth muscle (thoracic aorta); assay: In vitro vascular smooth muscle experiment (norepinephrine-induced contraction of thoracic aorta rings); design: species or system Wistar rats; conditions: isolated rat thoracic aorta rings, norepinephrine 10^−7 mol/L
Procedure: Healthy male Wistar rats were hit head to cause faint. The abdominal cavity was quickly cut, and the thoracic aorta was taken out. The attached tissue was separated and cut into 2-3 mm vascular rings. The experiment was carried out in the same manner as in urethral smooth muscle experiment. The resting tension applied was 1 g, and when baseline was stabilized, norepinephrine was added with a final concentration of 10^−7 mol/L in bath tube. When the contraction curve reached the highest point, rinse was performed immediately to recover to baseline levels. When baseline was stabilized, test drug with different concentrations was added respectively, and incubated 3-5 mins. 20 μL 1×10^−4 M norepinephrine was added with a final concentration of 10^−7 mol/L in bath tube, and contraction curve was recorded.

α1A-AR = target: T1, α1A-AR (Homo sapiens, UniProt P35348); assay: Tag-lite receptor binding assay, HEK293 cells expressing SNAP-α1A-AR; conditions: for IC50: Tag-lite binding, HEK293 SNAP-α1A-AR; for α1B/α1A: ratio of Tag-lite binding values
T1 construct: expressed in transfected cells; host or cells: HEK293
T1 sequence (P35348 1-466): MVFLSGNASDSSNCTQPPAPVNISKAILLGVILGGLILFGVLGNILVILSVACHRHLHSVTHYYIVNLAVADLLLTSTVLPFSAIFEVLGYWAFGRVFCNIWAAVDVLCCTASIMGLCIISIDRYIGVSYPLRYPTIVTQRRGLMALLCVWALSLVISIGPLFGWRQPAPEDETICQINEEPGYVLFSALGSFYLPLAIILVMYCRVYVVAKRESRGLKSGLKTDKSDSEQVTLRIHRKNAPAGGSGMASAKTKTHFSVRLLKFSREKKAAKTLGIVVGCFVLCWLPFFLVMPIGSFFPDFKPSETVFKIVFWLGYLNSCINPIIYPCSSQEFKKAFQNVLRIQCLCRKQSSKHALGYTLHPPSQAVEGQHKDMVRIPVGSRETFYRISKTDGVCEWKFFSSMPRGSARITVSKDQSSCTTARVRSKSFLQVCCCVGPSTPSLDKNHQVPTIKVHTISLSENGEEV
Description: (§1) Tag-lite assay was used to study receptor binding activity. Tag-lite assay was a combination of SNAP-Tag and HTRF technology, and was used to analyze surface receptors on live cell. SNAPs were small tag fusion proteins which could irreversibly, specifically and covalently bind to substrates via benzylmethyl, and the substrates were benzylmethyl guanine and benzylmethyl cytosine. Substrates and various dyes formed derivatives, and through covalent reaction, the dye was labeled onto SANPs. Plasmid was constructed using pSNAP and α1-AR encoding gene. After transfection into cells, N-terminal fusion protein of SNAP and α1-AR was expressed. The substrate and HTRF fluorescent dye (donor compound Lumi4-Tb) formed a derivative which reacted with SANP-α1-AR fusion protein so that Tb was labeled onto α1-AR. After adding acceptor fluorescent dye-labeled ligand, the receptor and ligand binding experiment was performed.
(§2) HEK293 cells stably expressing SNAP-α1A-AR, SNAP-α1B-AR, SNAP-α1D-AR were seeded in 3 cm dishes, and cultured for 24 hours. 100 nM Tag-lite SNAP Lumi4Tb was added and incubated for 1 h in an incubator. Cells were detached and washed with a labeling buffer for 4 times, and then was added into a 384-well plate in a volume of 10 μL per well. […] After incubation at room temperature for 1 hour, fluorescence intensity changes caused by cell receptor and ligand changes were detected using 665 nm (acceptor) and 620 nm (donor) at same time.
(§3) After incubation with different drugs, the reaction rate of cells to 1-AR fluorescein-labeled known ligand was calculated as follows: Reaction rate %=(D−B)/(S−B)*100%
(§4) The reaction rate of the same drug at different doses was tested using GraphPad Prism software by non-linear regression analysis, and the dose-response curve was obtained and Ki values was measured. Data were obtained from three separate experiments, and each experiment includes three duplicate wells.

urethra smooth muscle = assay: In vitro urethra smooth muscle experiment (norepinephrine-induced contraction); design: species or system Wistar rats; Urethra inhibition rate (%): concentration or dose not given beside the values; conditions: for IC50: isolated rat prostatic urethra, norepinephrine 3×10^−4 mol/L; for Urethra inhibition rate (%): norepinephrine-induced contraction; for Aorta/Urethra: selectivity ratio of IC50 values
Procedure: Healthy male Wistar rats were hit head to cause faint. The abdominal cavity and the pubic symphysis was quickly cut so as to quickly remove the prostatic urethra, which was immediately placed into a dish filled with 4° C. Kerbs-Henseleit solution (K-H solution). The surrounding tissue were carefully separated, and muscle strips about 3-5 mm were obtained, and the lower end was fixed onto a 20 mL of thermostatic bath and the upper end was connected onto a pressure transducer. Nutrient liquid was K-H solution, and carbogen (95% oxygen and 5% carbon dioxide) was aerated, and the bath temperature was 37° C., and resting tension applied was 0.5 g. The nutrient liquid was replaced every 6-8 mins. Until baseline stabilized, norepinephrine was added with a final concentration of 3×10^−4 mol/L in bath tube. When the contraction curve reached the highest point, it was rinsed immediately to recover to baseline levels. When baseline was stabilized, test drug with different concentrations was added respectively, and incubated 3-5 mins. 60 μL 1×10^−1 M norepinephrine was added with a final concentration of 3×10^−4 mol/L in bath tube, and the contraction curve was recorded.

α1B-AR = target: T2, α1B-AR (Homo sapiens, UniProt P35368); assay: Tag-lite receptor binding assay, HEK293 cells expressing SNAP-α1B-AR
T2 construct: expressed in transfected cells; host or cells: HEK293
T2 sequence (P35368 1-520): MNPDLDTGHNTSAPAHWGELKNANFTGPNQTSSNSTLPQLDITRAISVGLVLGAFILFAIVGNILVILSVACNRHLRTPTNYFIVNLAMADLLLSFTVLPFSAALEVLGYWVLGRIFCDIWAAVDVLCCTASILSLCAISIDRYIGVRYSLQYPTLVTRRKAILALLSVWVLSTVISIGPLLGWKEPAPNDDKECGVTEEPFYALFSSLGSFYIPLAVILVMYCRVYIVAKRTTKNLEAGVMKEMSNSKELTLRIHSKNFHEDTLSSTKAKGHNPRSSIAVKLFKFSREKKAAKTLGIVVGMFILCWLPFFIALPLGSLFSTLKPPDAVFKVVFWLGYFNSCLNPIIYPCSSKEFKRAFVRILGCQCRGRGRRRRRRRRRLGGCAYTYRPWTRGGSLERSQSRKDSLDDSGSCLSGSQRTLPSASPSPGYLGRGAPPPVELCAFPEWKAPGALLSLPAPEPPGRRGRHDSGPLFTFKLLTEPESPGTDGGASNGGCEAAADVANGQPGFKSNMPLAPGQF
Description: as §1, §2, §3, §4

## COc1cc2c(cc1OC)CN1CCc3cc4c(cc3[C@@H]1C2)OCO4 [DC037009, S-(−)-2,3-methylenedioxy-10,11-dimethoxy-5,8,13,13a-tetrahydro-6H-dibenzo[a,g]quinolizine]
[1]
  IC50: 1420 nM
α1A-AR
  IC50: 2.83 nM
  α1B/α1A: 45.3
Urethra smooth muscle
  IC50: 1.66 nM
Urethra smooth muscle; isolated rat tissues
  selectivity (Aorta/Urethra) relative to Silodosin: 11 folds
  selectivity (Aorta/Urethra) relative to tamsulosin: 1671 folds
  Aorta/Urethra: 873
Urethra smooth muscle; isolated rat urethra
  urethra suppression rate compared with positive drugs: comparable to that of the positive drugs
  Urethra inhibition rate (%): 80%
α1B-AR
  IC50: 128 nM

## C[C@H](Cc1cc2c(c(C(N)=O)c1)N(CCCO)CC2)NCCOc1ccccc1OCC(F)(F)F [Silodosin, reference compound]
[1]
  IC50: 63 nM
α1A-AR
  IC50: 0.07 nM
  α1B/α1A: 8.7
Urethra smooth muscle
  IC50: 0.82 nM
Urethra smooth muscle; isolated rat urethra
  Urethra inhibition rate (%): 88%
Urethra smooth muscle; isolated rat tissues
  Aorta/Urethra: 76.8
α1B-AR
  IC50: 0.61 nM

## COc1cc2c(cc1OCc1ccccc1)C[C@H]1c3cc4c(cc3CCN1C2)OCO4 [DC037016]
[1]
  IC50: 10000 nM
α1A-AR
  IC50: 16.6 nM
  α1B/α1A: 33.8
Urethra smooth muscle
  IC50: 5.12 nM
Urethra smooth muscle; isolated rat urethra
  Urethra inhibition rate (%): 38%
Urethra smooth muscle; isolated rat tissues
  Aorta/Urethra: 1953
α1B-AR
  IC50: 560 nM
